How the values were obtained:
[1] = system: human non-small cell lung carcinoma (LX-1); assay: Efficacy against subcutaneous LX-1 xenograft in nude mice; assay type: in vivo; settings: i.v.; for T/C(%) at Day 14: median tumor volume treated vs control when control ~1000 mm^3; for T/C (%) at Day 21: median tumor volume treated vs control when control ~2000 mm^3
Experimental: ^13C NMR spectra were obtained at 67.80 MHz on the JNM GSX-270 or 75.46 MHz on the Varian MercuryVX-300. Chemical shifts (δ) are reported in parts per million (ppm) downfield from tetramethylsilane (TMS) and coupling constants (J values) are given in hertz (Hz). All PEG conjugated compounds were dissolved (˜15 mg/mL) in sterile saline (0.9%) for injection prior to in vivo drug treatments and were given as their ara-C equivalents (absolute amount of ara-C given).
Athymic nude mice were implanted subcutaneous with a 4-5 mm^3 tissue fragment of LX-1 collected from donor mice. The tumor trocar site was observed twice weekly and measured once palpable. The tumor volume for each mouse was determined by measuring two dimensions with calipers and calculated using the formula: tumor volume=(length×width^2)/2. […] The mice were sorted to evenly distribute tumor size, grouped into 4 to 6 mice/group, and ear punched for permanent identification. Drugs were administered intravenously q3d×4 (Day 1, 4, 7 and 10) via the tail vein at an approximate rate of 0.5 mL per minute. Compounds were given both at an equal molar basis (absolute amount of active) of 20 mg/kg and at close their respective MTD (Ara-C, 100 mg/kg/dose (toxicity); PEG-AraC, 40 to 60 mg/kg/dose (volume). Mouse weight and tumor size were measured at the beginning of study and twice weekly through week 4. Drug effectiveness was determined by comparing tumor growth in treated versus untreated (no vehicle) control mice. Five types of endpoints were used as the basis for comparison: (a) mean tumor volumes at Day 28; (b) mean percent change in individual tumor volumes from initial; (c) percent difference in tumor volume (%T/C), measured when the control group's median tumor volume reached approximately 800-1100 mm^3 (exponential growth phase); (d) percent difference in tumor volume (%T/C) at Day 21 (˜2000 mm^3) and (e) the number of tumor regression (smaller tumor volume at Day 21 (˜2000 mm^3) and (e) the number of tumor regression (smaller tumor volume on Day 28 compared to Day 1) per group.

P388/0 = assay: Cytotoxicity assay, P388/0 cells (Alamar Blue); assay type: cell-based; settings: 37° C., 3 days incubation, duplicate, SD ±10%
Experimental: Cell Lines and Cytotoxicity Assays. Studies using P388/0 cell lines for IC50 (drug concentration inhibiting growth of cells by 50%) were maintained and conducted as previously reported. Briefly, for IC50 determination, cells were seeded into the microwell plates at a density […] per 50 μL per well. Plates were incubated at 37° C. in a humidified incubator with 5% CO2 for 3 days. Cell growth was measured by the addition of 10 μL/well of Alamar Blue (Alamar Biosciences, Inc., Sacramento, Calif.) and the plates were incubated a further 4 hours at 37° C. The IC50 values for each compound were determined from absorbance versus dilution factor plots. […] All cell lines were periodically tested for Mycoplasma and were Mycoplasma free.

In the case of `Nc1ccn([C@@H]2O[C@H](CO)[C@@H](O)[C@@H]2O)c(=O)n1` [Ara-C, ara-C], the “Complete Regression (#/Grp)” value ([1]; total dose 80 mg/kg) is reported as 0/4, the “Regression at Day 28 (#/Grp)” value ([1]; total dose 80 mg/kg) is reported as 0/4 and the “T/C(%) at Day 14” value ([1]; total dose 80 mg/kg) is reported as 51.1%. The “T/C (%) at Day 21” value ([1]; total dose 80 mg/kg) was 52.2%, the “Complete Regression (#/Grp)” value ([1]; total dose 400 mg/kg) was 0/6 and the “Regression at Day 28 (#/Grp)” value ([1]; total dose 400 mg/kg) was 1/6. For the same compound, the “T/C(%) at Day 14” value ([1]; total dose 400 mg/kg) was 16.7%, the “T/C (%) at Day 21” value ([1]; total dose 400 mg/kg) was 33.4% and the IC50 (P388/0) was 10 nM.
